# Measured values as given in the kinase profiling compilation of Christmann-Franck et al. (2016).
# Experiments:
# Assay in all cases: radiometric filter-binding kinase assay
# [1] = system: AKT1 (human), P31749 [S473D]
# BTK (human) = BTK (human) (UniProt Q06187)
# CSNK2A1 (human) = CSNK2A1 (human) (UniProt P68400)
# CaMK1 (human) = CaMK1 (human) (UniProt Q14012)
# DYRK1A (human) = DYRK1A (human) (UniProt Q13627)
# DYRK2 (human) = DYRK2 (human) (UniProt Q92630)
# DYRK3 (human) = DYRK3 (human) (UniProt O43781)
# DYRK3 (human), sequence (O43781 whole entry, looked up): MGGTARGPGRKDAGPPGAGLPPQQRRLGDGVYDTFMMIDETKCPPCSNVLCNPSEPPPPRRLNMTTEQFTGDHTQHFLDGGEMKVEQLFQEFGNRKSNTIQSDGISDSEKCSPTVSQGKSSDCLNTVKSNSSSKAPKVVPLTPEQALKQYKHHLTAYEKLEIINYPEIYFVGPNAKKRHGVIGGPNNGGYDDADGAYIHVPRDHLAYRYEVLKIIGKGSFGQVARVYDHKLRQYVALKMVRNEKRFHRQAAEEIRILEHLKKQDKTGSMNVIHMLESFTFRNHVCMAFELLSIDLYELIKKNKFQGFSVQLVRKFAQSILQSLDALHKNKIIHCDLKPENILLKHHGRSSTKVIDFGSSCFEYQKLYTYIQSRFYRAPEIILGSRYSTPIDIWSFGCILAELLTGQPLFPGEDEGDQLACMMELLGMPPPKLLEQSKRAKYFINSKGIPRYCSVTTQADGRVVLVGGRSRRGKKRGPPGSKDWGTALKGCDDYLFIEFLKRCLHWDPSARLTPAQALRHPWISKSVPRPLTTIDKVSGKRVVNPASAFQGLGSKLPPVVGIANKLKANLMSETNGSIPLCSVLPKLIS
# EEF2K (human) = EEF2K (human) (UniProt O00418)
# EPHA2 (human) = EPHA2 (human) (UniProt P29317)
# EPHA2 (human), sequence (P29317 whole entry, looked up): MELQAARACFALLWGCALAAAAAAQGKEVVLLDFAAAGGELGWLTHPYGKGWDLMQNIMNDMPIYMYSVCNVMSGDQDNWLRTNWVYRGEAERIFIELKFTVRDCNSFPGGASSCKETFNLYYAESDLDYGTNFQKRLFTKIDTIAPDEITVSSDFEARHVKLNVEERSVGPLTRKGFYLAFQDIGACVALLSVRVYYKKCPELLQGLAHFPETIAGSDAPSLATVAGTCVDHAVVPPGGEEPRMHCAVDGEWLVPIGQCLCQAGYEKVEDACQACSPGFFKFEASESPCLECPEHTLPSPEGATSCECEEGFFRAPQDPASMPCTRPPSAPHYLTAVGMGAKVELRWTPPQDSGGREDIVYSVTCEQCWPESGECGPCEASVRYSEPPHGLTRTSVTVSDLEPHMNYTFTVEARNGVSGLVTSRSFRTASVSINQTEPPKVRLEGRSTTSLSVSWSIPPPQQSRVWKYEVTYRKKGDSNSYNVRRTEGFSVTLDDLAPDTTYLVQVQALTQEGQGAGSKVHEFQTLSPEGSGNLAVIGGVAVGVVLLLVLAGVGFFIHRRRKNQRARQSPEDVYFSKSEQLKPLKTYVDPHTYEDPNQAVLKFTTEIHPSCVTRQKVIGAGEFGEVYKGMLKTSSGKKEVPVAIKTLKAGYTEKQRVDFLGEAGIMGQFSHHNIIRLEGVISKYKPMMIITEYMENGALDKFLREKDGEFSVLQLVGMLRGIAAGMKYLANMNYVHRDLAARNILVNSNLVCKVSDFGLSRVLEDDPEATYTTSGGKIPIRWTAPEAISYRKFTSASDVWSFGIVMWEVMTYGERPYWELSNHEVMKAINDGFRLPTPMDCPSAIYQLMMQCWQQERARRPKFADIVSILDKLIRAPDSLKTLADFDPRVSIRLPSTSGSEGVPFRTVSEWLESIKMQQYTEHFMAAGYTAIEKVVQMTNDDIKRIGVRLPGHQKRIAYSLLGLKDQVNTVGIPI
# EPHB3 (human) = EPHB3 (human) (UniProt P54753)
# ERBB4 (human) = ERBB4 (human) (UniProt Q15303)
# ERBB4 (human), sequence (Q15303 whole entry, looked up): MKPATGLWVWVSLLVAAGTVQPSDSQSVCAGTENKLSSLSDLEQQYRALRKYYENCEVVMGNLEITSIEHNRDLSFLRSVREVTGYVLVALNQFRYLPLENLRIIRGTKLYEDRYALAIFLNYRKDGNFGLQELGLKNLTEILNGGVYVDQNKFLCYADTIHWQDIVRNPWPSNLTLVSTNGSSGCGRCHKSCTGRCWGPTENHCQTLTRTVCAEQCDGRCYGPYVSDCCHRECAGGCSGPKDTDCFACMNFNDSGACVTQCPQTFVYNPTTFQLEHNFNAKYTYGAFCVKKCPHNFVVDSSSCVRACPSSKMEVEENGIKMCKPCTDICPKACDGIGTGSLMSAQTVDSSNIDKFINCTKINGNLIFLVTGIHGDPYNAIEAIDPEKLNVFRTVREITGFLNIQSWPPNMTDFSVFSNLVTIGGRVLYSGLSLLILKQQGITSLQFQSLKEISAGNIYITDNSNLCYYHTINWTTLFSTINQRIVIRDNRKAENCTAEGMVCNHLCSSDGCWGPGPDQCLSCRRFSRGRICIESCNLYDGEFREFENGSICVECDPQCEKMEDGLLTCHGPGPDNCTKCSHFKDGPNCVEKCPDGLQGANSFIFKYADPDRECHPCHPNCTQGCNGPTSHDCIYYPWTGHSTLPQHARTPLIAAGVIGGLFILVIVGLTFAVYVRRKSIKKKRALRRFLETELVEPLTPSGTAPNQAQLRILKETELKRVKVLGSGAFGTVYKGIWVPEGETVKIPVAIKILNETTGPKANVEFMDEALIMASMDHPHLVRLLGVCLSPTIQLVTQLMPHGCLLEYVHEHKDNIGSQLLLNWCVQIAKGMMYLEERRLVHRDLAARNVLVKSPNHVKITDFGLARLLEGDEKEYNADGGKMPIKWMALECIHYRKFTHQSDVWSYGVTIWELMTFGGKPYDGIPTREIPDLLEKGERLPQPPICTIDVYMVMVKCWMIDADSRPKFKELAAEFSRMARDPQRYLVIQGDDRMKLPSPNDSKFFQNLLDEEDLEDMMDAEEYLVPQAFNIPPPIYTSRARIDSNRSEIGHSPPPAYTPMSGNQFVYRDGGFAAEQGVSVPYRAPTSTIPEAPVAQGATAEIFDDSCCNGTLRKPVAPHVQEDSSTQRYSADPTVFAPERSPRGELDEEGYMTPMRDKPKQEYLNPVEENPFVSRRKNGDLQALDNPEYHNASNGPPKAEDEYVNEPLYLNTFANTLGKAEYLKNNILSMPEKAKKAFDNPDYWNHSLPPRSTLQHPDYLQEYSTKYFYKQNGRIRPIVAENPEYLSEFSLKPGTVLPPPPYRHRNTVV
# HIPK1 (human) = HIPK1 (human) (UniProt Q86Z02)
# HIPK2 (human) = HIPK2 (human) (UniProt Q9H2X6)
# HIPK2 (human), sequence (Q9H2X6 whole entry, looked up): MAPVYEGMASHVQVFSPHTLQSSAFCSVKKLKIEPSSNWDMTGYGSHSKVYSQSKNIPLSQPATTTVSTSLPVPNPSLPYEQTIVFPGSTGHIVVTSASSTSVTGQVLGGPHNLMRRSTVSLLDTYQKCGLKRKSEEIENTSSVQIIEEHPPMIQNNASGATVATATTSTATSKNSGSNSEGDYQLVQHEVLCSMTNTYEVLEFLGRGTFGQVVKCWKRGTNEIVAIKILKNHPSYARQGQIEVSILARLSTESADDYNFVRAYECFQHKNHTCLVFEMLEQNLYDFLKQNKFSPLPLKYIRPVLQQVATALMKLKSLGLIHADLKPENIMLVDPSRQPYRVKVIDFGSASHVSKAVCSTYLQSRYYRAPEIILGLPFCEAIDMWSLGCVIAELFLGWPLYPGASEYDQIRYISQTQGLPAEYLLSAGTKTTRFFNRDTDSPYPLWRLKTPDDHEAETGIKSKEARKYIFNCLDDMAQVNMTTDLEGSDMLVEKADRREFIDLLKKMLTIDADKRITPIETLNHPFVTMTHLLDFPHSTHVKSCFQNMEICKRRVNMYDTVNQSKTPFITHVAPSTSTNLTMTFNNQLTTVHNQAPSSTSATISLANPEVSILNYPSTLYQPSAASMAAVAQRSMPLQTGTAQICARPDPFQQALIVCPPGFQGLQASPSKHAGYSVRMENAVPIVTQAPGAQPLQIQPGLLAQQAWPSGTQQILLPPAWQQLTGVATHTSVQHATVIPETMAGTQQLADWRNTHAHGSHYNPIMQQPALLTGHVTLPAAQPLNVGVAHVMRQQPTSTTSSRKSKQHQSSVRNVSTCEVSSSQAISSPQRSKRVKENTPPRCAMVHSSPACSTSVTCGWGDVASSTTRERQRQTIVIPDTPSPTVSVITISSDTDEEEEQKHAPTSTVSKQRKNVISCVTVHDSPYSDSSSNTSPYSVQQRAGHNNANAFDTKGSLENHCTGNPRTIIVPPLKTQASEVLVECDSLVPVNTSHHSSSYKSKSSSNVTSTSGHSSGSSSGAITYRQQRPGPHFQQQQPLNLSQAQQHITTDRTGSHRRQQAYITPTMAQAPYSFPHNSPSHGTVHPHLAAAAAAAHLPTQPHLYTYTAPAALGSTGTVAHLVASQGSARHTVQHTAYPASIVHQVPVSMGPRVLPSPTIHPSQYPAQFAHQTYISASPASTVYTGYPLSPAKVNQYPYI
# HIPK3 (human) = HIPK3 (human) (UniProt Q9H422)
# IKBKE (human) = IKBKE (human) (UniProt Q14164)
# LCK (mouse) = settings: accession and sequence are those of the human protein
# MAP3K9 (human) = MAP3K9 (human) (UniProt P80192)
# MAPK11 (human) = MAPK11 (human) (UniProt Q15759)
# MAPK13 (human) = MAPK13 (human) (UniProt O15264)
# MAPK14 (human) = MAPK14 (human) (UniProt Q16539)
# MAPK14 (human), sequence (Q16539 whole entry, looked up): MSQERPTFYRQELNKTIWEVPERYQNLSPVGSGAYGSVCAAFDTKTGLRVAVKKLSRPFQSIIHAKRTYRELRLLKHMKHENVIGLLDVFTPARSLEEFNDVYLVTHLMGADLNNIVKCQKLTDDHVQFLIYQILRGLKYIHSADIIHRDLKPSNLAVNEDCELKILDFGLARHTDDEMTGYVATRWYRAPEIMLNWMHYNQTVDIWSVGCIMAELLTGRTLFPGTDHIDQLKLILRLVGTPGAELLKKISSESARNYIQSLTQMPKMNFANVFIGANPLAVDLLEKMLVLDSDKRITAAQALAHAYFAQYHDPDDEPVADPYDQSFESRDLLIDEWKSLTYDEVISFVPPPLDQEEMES
# MAPKAPK5 (human) = MAPKAPK5 (human) (UniProt Q8IW41)
# MARK3 (human) = MARK3 (human) (UniProt P27448)
# MST4 (human) = MST4 (human) (UniProt Q9P289)
# NEK6 (human) = NEK6 (human) (UniProt Q9HC98)
# NEK6 (human), sequence (Q9HC98 whole entry, looked up): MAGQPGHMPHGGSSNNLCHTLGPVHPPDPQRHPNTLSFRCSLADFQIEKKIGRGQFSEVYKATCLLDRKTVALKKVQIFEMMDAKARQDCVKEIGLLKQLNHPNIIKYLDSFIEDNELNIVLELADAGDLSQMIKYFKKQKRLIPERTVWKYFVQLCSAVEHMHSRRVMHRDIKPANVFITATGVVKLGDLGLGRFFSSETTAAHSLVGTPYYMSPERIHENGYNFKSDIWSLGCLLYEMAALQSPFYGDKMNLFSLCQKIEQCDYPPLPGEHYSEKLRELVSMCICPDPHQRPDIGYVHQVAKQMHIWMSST
# NUAK1 (human) = NUAK1 (human) (UniProt O60285)
# PAK4 (human) = PAK4 (human) (UniProt O96013)
# PAK6 (human) = PAK6 (human) (UniProt Q9NQU5)
# PAK7 (human) = PAK7 (human) (UniProt Q9P286)
# PRKCZ (human) = PRKCZ (human) (UniProt Q05513)
# ROCK2 (rat) = settings: accession and sequence are those of the human protein
# RPS6KA5 KD1 KD2 (human) = RPS6KA5 KD1 KD2 (human) (UniProt O75582)
smiles,measurement,setting,value
CN1C(=O)[C@@H](Cc2c[nH]c3ccccc23)NC1=S,residual activity,[1]; compound 1.0 µM,96%
same,residual activity,[1]; compound 10.0 µM,91%
same,residual activity,BTK (human); compound 1.0 µM,99%
same,residual activity,BTK (human); compound 10.0 µM,89%
same,residual activity,CSNK2A1 (human); compound 1.0 µM,95%
same,residual activity,CSNK2A1 (human); compound 10.0 µM,87%
same,residual activity,CaMK1 (human); compound 1.0 µM,94%
same,residual activity,CaMK1 (human); compound 10.0 µM,94%
same,residual activity,DYRK1A (human); compound 1.0 µM,81%
same,residual activity,DYRK1A (human); compound 10.0 µM,94%
same,residual activity,DYRK2 (human); compound 1.0 µM,105%
same,residual activity,DYRK2 (human); compound 10.0 µM,107%
same,residual activity,DYRK3 (human); compound 1.0 µM,90%
same,residual activity,DYRK3 (human); compound 10.0 µM,82%
same,residual activity,EEF2K (human); compound 1.0 µM,83%
same,residual activity,EEF2K (human); compound 10.0 µM,75%
same,residual activity,EPHA2 (human); compound 1.0 µM,102%
same,residual activity,EPHA2 (human); compound 10.0 µM,96%
same,residual activity,EPHB3 (human); compound 1.0 µM,112%
same,residual activity,EPHB3 (human); compound 10.0 µM,104%
same,residual activity,ERBB4 (human); compound 1.0 µM,109%
same,residual activity,ERBB4 (human); compound 10.0 µM,104%
same,residual activity,HIPK1 (human); compound 1.0 µM,91%
same,residual activity,HIPK1 (human); compound 10.0 µM,91%
same,residual activity,HIPK2 (human); compound 1.0 µM,81%
same,residual activity,HIPK2 (human); compound 10.0 µM,88%
same,residual activity,HIPK3 (human); compound 1.0 µM,111%
same,residual activity,HIPK3 (human); compound 10.0 µM,102%
same,residual activity,IKBKE (human); compound 1.0 µM,90%
same,residual activity,IKBKE (human); compound 10.0 µM,86%
same,residual activity,LCK (mouse); compound 1.0 µM,116%
same,residual activity,LCK (mouse); compound 10.0 µM,111%
same,residual activity,MAP3K9 (human); compound 1.0 µM,100%
same,residual activity,MAP3K9 (human); compound 10.0 µM,96%
same,residual activity,MAPK11 (human); compound 1.0 µM,91%
same,residual activity,MAPK11 (human); compound 10.0 µM,88%
same,residual activity,MAPK13 (human); compound 1.0 µM,96%
same,residual activity,MAPK13 (human); compound 10.0 µM,102%
same,residual activity,MAPK14 (human); compound 1.0 µM,97%
same,residual activity,MAPK14 (human); compound 10.0 µM,102%
same,residual activity,MAPKAPK5 (human); compound 1.0 µM,88%
same,residual activity,MAPKAPK5 (human); compound 10.0 µM,87%
same,residual activity,MARK3 (human); compound 1.0 µM,94%
same,residual activity,MARK3 (human); compound 10.0 µM,98%
same,residual activity,MST4 (human); compound 1.0 µM,103%
same,residual activity,MST4 (human); compound 10.0 µM,112%
same,residual activity,NEK6 (human); compound 1.0 µM,89%
same,residual activity,NEK6 (human); compound 10.0 µM,119%
same,residual activity,NUAK1 (human); compound 1.0 µM,108%
same,residual activity,NUAK1 (human); compound 10.0 µM,101%
same,residual activity,PAK4 (human); compound 1.0 µM,95%
same,residual activity,PAK4 (human); compound 10.0 µM,97%
same,residual activity,PAK6 (human); compound 1.0 µM,93%
same,residual activity,PAK6 (human); compound 10.0 µM,99%
same,residual activity,PAK7 (human); compound 1.0 µM,119%
same,residual activity,PAK7 (human); compound 10.0 µM,99%
same,residual activity,PRKCZ (human); compound 1.0 µM,70%
same,residual activity,PRKCZ (human); compound 10.0 µM,83%
same,residual activity,ROCK2 (rat); compound 1.0 µM,96%
same,residual activity,ROCK2 (rat); compound 10.0 µM,97%
same,residual activity,RPS6KA5 KD1 KD2 (human); compound 1.0 µM,78%
same,residual activity,RPS6KA5 KD1 KD2 (human); compound 10.0 µM,90%
O=C(O)c1cc(N=Nc2ccc(S(=O)(=O)Nc3ccccn3)cc2)ccc1O,residual activity,[1]; compound 1.0 µM,112%
same,residual activity,[1]; compound 10.0 µM,106%
same,residual activity,BTK (human); compound 1.0 µM,97%
same,residual activity,BTK (human); compound 10.0 µM,74%
same,residual activity,CSNK2A1 (human); compound 1.0 µM,83%
same,residual activity,CSNK2A1 (human); compound 10.0 µM,29%
same,residual activity,CaMK1 (human); compound 1.0 µM,97%
same,residual activity,CaMK1 (human); compound 10.0 µM,91%
same,residual activity,DYRK1A (human); compound 1.0 µM,94%
same,residual activity,DYRK1A (human); compound 10.0 µM,85%
same,residual activity,DYRK2 (human); compound 1.0 µM,99%
same,residual activity,DYRK2 (human); compound 10.0 µM,79%
same,residual activity,DYRK3 (human); compound 1.0 µM,89%
same,residual activity,DYRK3 (human); compound 10.0 µM,77%
same,residual activity,EEF2K (human); compound 1.0 µM,95%
same,residual activity,EEF2K (human); compound 10.0 µM,109%
same,residual activity,EPHA2 (human); compound 1.0 µM,119%
same,residual activity,EPHB3 (human); compound 1.0 µM,102%
same,residual activity,EPHB3 (human); compound 10.0 µM,118%
same,residual activity,ERBB4 (human); compound 1.0 µM,100%
same,residual activity,ERBB4 (human); compound 10.0 µM,77%
same,residual activity,HIPK1 (human); compound 1.0 µM,111%
same,residual activity,HIPK1 (human); compound 10.0 µM,105%
same,residual activity,HIPK2 (human); compound 10.0 µM,94%
same,residual activity,HIPK3 (human); compound 1.0 µM,98%
same,residual activity,HIPK3 (human); compound 10.0 µM,103%
same,residual activity,IKBKE (human); compound 1.0 µM,92%
same,residual activity,IKBKE (human); compound 10.0 µM,112%
same,residual activity,LCK (mouse); compound 1.0 µM,102%
same,residual activity,LCK (mouse); compound 10.0 µM,97%
same,residual activity,MAP3K9 (human); compound 1.0 µM,105%
same,residual activity,MAP3K9 (human); compound 10.0 µM,89%
same,residual activity,MAPK11 (human); compound 1.0 µM,113%
same,residual activity,MAPK11 (human); compound 10.0 µM,109%
same,residual activity,MAPK13 (human); compound 1.0 µM,100%
same,residual activity,MAPK13 (human); compound 10.0 µM,103%
same,residual activity,MAPK14 (human); compound 1.0 µM,105%
same,residual activity,MAPK14 (human); compound 10.0 µM,101%
same,residual activity,MAPKAPK5 (human); compound 1.0 µM,92%
same,residual activity,MAPKAPK5 (human); compound 10.0 µM,90%
same,residual activity,MARK3 (human); compound 1.0 µM,117%
same,residual activity,MARK3 (human); compound 10.0 µM,109%
same,residual activity,MST4 (human); compound 1.0 µM,102%
same,residual activity,MST4 (human); compound 10.0 µM,104%
same,residual activity,NEK6 (human); compound 1.0 µM,98%
same,residual activity,NEK6 (human); compound 10.0 µM,97%
same,residual activity,NUAK1 (human); compound 1.0 µM,107%
same,residual activity,NUAK1 (human); compound 10.0 µM,86%
same,residual activity,PAK4 (human); compound 1.0 µM,89%
same,residual activity,PAK4 (human); compound 10.0 µM,76%
same,residual activity,PAK6 (human); compound 1.0 µM,99%
same,residual activity,PAK6 (human); compound 10.0 µM,99%
same,residual activity,PAK7 (human); compound 1.0 µM,104%
same,residual activity,PAK7 (human); compound 10.0 µM,96%
same,residual activity,PRKCZ (human); compound 1.0 µM,96%
same,residual activity,PRKCZ (human); compound 10.0 µM,103%
same,residual activity,ROCK2 (rat); compound 1.0 µM,93%
same,residual activity,ROCK2 (rat); compound 10.0 µM,90%
same,residual activity,RPS6KA5 KD1 KD2 (human); compound 1.0 µM,109%
same,residual activity,RPS6KA5 KD1 KD2 (human); compound 10.0 µM,95%
Cc1cccc(Nc2nn(C)c3ncnc(N)c23)c1,residual activity,[1]; compound 1.0 µM,100%
same,residual activity,[1]; compound 10.0 µM,114%
same,residual activity,CSNK2A1 (human); compound 1.0 µM,93%
same,residual activity,CSNK2A1 (human); compound 10.0 µM,93%
same,residual activity,CaMK1 (human); compound 1.0 µM,92%
same,residual activity,CaMK1 (human); compound 10.0 µM,89%
same,residual activity,DYRK1A (human); compound 1.0 µM,90%
same,residual activity,DYRK1A (human); compound 10.0 µM,101%
same,residual activity,DYRK2 (human); compound 1.0 µM,93%
same,residual activity,DYRK2 (human); compound 10.0 µM,89%
same,residual activity,DYRK3 (human); compound 1.0 µM,136%
same,residual activity,DYRK3 (human); compound 10.0 µM,137%
same,residual activity,EEF2K (human); compound 1.0 µM,97%
same,residual activity,EEF2K (human); compound 10.0 µM,96%
same,residual activity,HIPK2 (human); compound 1.0 µM,124%
same,residual activity,HIPK2 (human); compound 10.0 µM,125%
same,residual activity,HIPK3 (human); compound 1.0 µM,136%
same,residual activity,HIPK3 (human); compound 10.0 µM,138%
same,residual activity,LCK (mouse); compound 1.0 µM,125%
same,residual activity,LCK (mouse); compound 10.0 µM,131%
same,residual activity,MAPK11 (human); compound 1.0 µM,131%
same,residual activity,MAPK11 (human); compound 10.0 µM,111%
same,residual activity,MAPK13 (human); compound 1.0 µM,101%
same,residual activity,MAPK13 (human); compound 10.0 µM,105%
same,residual activity,MAPK14 (human); compound 1.0 µM,118%
same,residual activity,MAPK14 (human); compound 10.0 µM,122%
same,residual activity,MAPKAPK5 (human); compound 1.0 µM,101%
same,residual activity,MAPKAPK5 (human); compound 10.0 µM,109%
same,residual activity,MARK3 (human); compound 1.0 µM,89%
same,residual activity,MARK3 (human); compound 10.0 µM,94%
same,residual activity,NEK6 (human); compound 1.0 µM,73%
same,residual activity,NEK6 (human); compound 10.0 µM,81%
same,residual activity,PAK4 (human); compound 1.0 µM,86%
same,residual activity,PAK4 (human); compound 10.0 µM,95%
same,residual activity,PAK6 (human); compound 1.0 µM,103%
same,residual activity,PAK6 (human); compound 10.0 µM,102%
same,residual activity,PAK7 (human); compound 1.0 µM,139%
same,residual activity,PAK7 (human); compound 10.0 µM,124%
same,residual activity,PRKCZ (human); compound 1.0 µM,89%
same,residual activity,PRKCZ (human); compound 10.0 µM,112%
same,residual activity,ROCK2 (rat); compound 1.0 µM,117%
same,residual activity,ROCK2 (rat); compound 10.0 µM,106%
same,residual activity,RPS6KA5 KD1 KD2 (human); compound 1.0 µM,92%
same,residual activity,RPS6KA5 KD1 KD2 (human); compound 10.0 µM,100%
